# Literature values as cited in patent US9856441B2, “Soap bar” (COLGATE-PALMOLIVE COMPANY, priority 2013, dated 2018).
smiles,measurement,setting,value
"NCCS(=O)(=O)O [taurine, 2-aminoethanesulfonic acid]",maximum solubility of taurine in water,room temperature,about 6 weight %
same,solubility of taurine itself,taurine not in salt form,up to 6%
